# Results published in PMC8954792 (Viruses, 2022).
# Tested on: authentic SARS-CoV-2 Delta (B.1.617.2) variant
# Assay: microbe, parasite or virus in culture
# Type: cell-based
# Details: Severe acute respiratory syndrome coronavirus 2, Vero C1008
row,Compound,IC50 [nM]
1,C#CCOc1ccc(CCN2C(=O)/C(=C/c3ccc(-c4ccc(Cl)c(C(=O)O)c4)o3)SC2=S)cc1 [FD007],52.5
2,C#CCOCCOc1ccc(CCN2C(=O)/C(=C/c3ccc(-c4ccc(Cl)c(C(=O)O)c4)o3)SC2=S)cc1 [FD008],95.9
3,CCOc1ccc(CCN2C(=O)/C(=C/c3ccc(-c4ccc(Cl)c(C(=O)O)c4)o3)SC2=S)cc1 [FD009],13.5
4,O=C(O)c1cc(-c2ccc(/C=C3\SC(=S)N(CCc4ccc(OCc5ccc(F)cc5)cc4)C3=O)o2)ccc1Cl [FD010],26.3
5,O=C(O)c1cc(-c2ccc(/C=C3\SC(=S)N(CCc4ccc(OCC5CC5)cc4)C3=O)o2)ccc1Cl [FD012],126
6,O=C(O)c1cc(-c2ccc(/C=C3\SC(=S)N(CCc4ccc(OCc5ccsc5)cc4)C3=O)o2)ccc1Cl [FD013],60.3
7,"CCC(CC)COC(=O)[C@H](C)N[P@](=O)(OC[C@H]1O[C@@](C#N)(c2ccc3c(N)ncnn23)[C@H](O)[C@@H]1O)Oc1ccccc1 [Remdesivir, remdesivir, reference compound]",18.6
